From patent US20260207570A1, “OPTIMIZED DOSING OF LERIGLITAZONE” (MINORYX THERAPEUTICS S.L., priority 2022, published 2026)

Assays:
[1] = Phase 1 safety and tolerability (treatment-emergent adverse events); assay type: in vivo, human
Procedure: Study design: A phase 1, randomized, double blind, placebo-controlled, single-center clinical study in 33 male healthy volunteers (HV) (19-54 years, 63.2-95.7 Kg) was conducted with leriglitazone HCl and divided in two parts: a single ascending dose (SAD) with three dose levels (30, 90 and 270 mg) in fasted conditions, followed with two dose levels (90 and 270 mg) in fed conditions; a multiple ascending dose (MAD) with a double-blind, parallel-design with two dose levels (135 and 270 mg) for 8 days and a separate cohort of subjects in an open-label parallel design with two dose levels (135 and 270 mg) including cerebrospinal fluid (CSF) collection on day 8. In the fasted conditions a fasting period of at least 4 hours was required before obtaining plasma samples. The food effect (FE) was assessed by comparing fasted with fed conditions (dosing after a high-fat breakfast per FDA definition with a calculated caloric content of 918 kcal). In the MAD part (fed) the medication was taken before a normal breakfast. Leriglitazone HCl was supplied by ChemConnection and an oral suspension of leriglitazone (20% w/v kleptose, 2% ethanol in 100 mM phosphate buffer pH=7.8) at 6 mg/ml was used in the study. Safety: Safety and tolerability assessments consisted of adverse events (AEs), clinical laboratory, vital signs, 12-lead electrocardiogram (ECG), and physical examination.

[2] = substrate: CC(O)c1ccc(CCOc2ccc(CC3SC(=O)NC3=O)cc2)nc1; test: Metabolism kinetics with recombinant CYP2C8; assay type: in vitro ADME, human
From the text: CYP2C8 and CYP3A4 were identified in vitro as the major contributing enzymes of leriglitazone with CYP2C8 mostly responsible for the formation of the main metabolite M3. Kinetic parameters of human CYP2C8 and CYP3A4 mediated metabolism of leriglitazone were studied in in vitro studies using recombinant CYP3A4 and CYP2C8 enzymes (ADMESCOPE, Finland). […] As the disappearance of leriglitazone was very slow especially at high initial concentrations, the accuracy of the fit was not as good as based on M3 formation. […] Thus, it was not possible to fit the kinetic parameters Km and Vmax.

[3] = phase 1, healthy male volunteers
[4] = other: recombinant CYP2C8, based on M3 formation
[5] = other: recombinant CYP2C8, based on leriglitazone depletion

In the case of `CC(O)c1ccc(CCOc2ccc(CC3SC(=O)NC3=O)cc2)nc1.Cl` (centres unmarked) [leriglitazone HCl, 5-[[4-[2-[5-(1-hydroxyethyl)pyridin-2-yl]ethoxy]phenyl]methyl]-1,3-thiazolidine-2,4-dione hydrochloride], the “clinical laboratory evaluations, vital signs, ECGs and physical examinations” value ([1]; phase 1, healthy male subjects) is reported as “No clinically significant changes from baseline”, the “serious AEs” value [1, 3] is reported as “no serious AEs reported” and the “severity of treatment-emergent adverse events” value [1, 3] is reported as “of mild severity”. For the same molecule, the safety and tolerability ([1]; single and multiple doses, healthy male subjects) was “safe and well tolerated”.

B1: human CYP2C8 (Homo sapiens) (protein)
chain: MEPFVVLVLCLSFMLLFSLWRQSCRRRKLPPGPTPLPIIGNMLQIDVKDICKSFTNFSKVYGPVFTVYFGMNPIVVFHGYEAVKEALIDNGEEFSGRGNSPISQRITKGLGIISSNGKRWKEIRRFSLTTLRNFGMGKRSIEDRVQEEAHCLVEELRKTKASPCDPTFILGCAPCNVICSVVFQKRFDYKDQNFLTLMKRFNENFRILNSPWIQVCNNFPLLIDCFPGTHNKVLKNVALTRSYIREKVKEHQASLDVNNPRDFIDCFLIKMEQEKDNQKSEFNIENLVGTVADLFVAGTETTSTTLRYGLLLLLKHPEVTAKVQEEIDHVIGRHRSPCMQDRSHMPYTDAVVHEIQRYSDLVPTGVPHAVTTDTKFRNYLIPKGTTIMALLTSVLHDDKEFPNPNIFDPGHFLDKNGNFKKSDYFMPFSAGKRICAGEGLARMELFLFLTTILQNFNLKSVDDLKNLNTTAVTKGIVSLPPSYQICFIPV
notes: purchased ADMESCOPE, Finland
B1 showed a Km [2, 4] of 34.0 µM, a kcat [2, 4] of 2.27 pmol/min/pmol CYP and a Km [2, 5] of 13.7 µM. For the same molecule, the kcat [2, 5] was 1.60 pmol/min/pmol CYP.
